Assay results reported in patent US10174015B2, “Substituted heterocyclic derivative, preparation method and use thereof” (Xiamen University, priority 2014, dated 2019).
Marks after values point to notes of the source that are not given here.

Columns and labels:
[1] = Assay on drug metabolism in rat; assay type: in vivo, SD rats; details: SD, plasma, iv, 30 mg/Kg via jugular vein
Text: 50 SD rats (purchased from Shanghai SLAC Laboratory Animal Co., Ltd) were divided into 5 groups randomly, 10 rats per group. After anesthesia with ether, rat was fixed on the operating table on its back, and was shaved at the operative site of neck. After disinfection with 75% alcohol, the neck was cut about 1.5 cm longitudinally, muscle tissues and nervi vascularis surrounding trachea were separated by blunt dissection, and carotid artery was separated by blunt dissection. Ligation was performed at distal end, an artery clamp was used at proximal part, and the distance between them was about 1 cm. A small cut was made with a pair of ophthalmic scissors at proximal part close to the ligated site, and arterial duct was introduced from the small cut to the proximal part, the artery clamp was loosened, the arterial ostium was clamped with smooth forceps, whilst the arterial duct was delivered to heart ventricle. Upon the introduction of the arterial duct into heart ventricle, the blood vessel was ligated. By using the same intubation method for artery, intubation was applied to jugular veins. After intubation, a tubule filled with heparin sodium was drawn out from artery and vein, which passed through the skin under the ear of the rat and drawn out from the dorsal part skin of the neck of the rat, and the tubule was fixed well. The muscles and skin were sutured at the surgical site of the rat, and normal saline containing heparin sodium was injected from time to time via the tubule connecting the artery and the vein to prevent tubule obstruction due to blood coagulation. The rat was placed in a warm and clean cage provided with water and food, waiting for the rat to wake up naturally.
After the rat regained consciousness and acted normally, assay on metabolic stability of compounds was performed in the rat. All the agents to be injected (including compounds to be tested and control drug) were dissolved in a mixed solvent of PEG400:Tween 80:normal saline (at a volume ratio of 5:5:90), at a concentration of 5 mg/mL. The agent was injected slowly at a dose of 30 mg/Kg via the tubule drawn out from the jugular vein. After administration, the time was recorded, and blood was collected from the tubule drawn out from carotid artery at 2, 5, 10, 20, 30, 60, 240, 360, and 720 min, in an amount of 200 μL for each time. The whole blood was placed in commercially available heparin sodium blood-collecting tube (Jiangxi Jingzhi Medical Equipment Co., Ltd.), centrifuged at 1800 g for 15 min. To the supernatant plasma, 150 μL pre-cooled methanol stopping buffer (containing internal standard E8, 1 nmol/sample) was added, vertically mixed well, and then centrifuged at 4° C., 12000 g for 10 min. The supernatant was transferred to a sample vial, the target compound was detected by LC-MS/MS, and the content of the compound was calculated by virtue of standard curve.

[2] = test system: adjuvant-induced arthritis rat models; assay: Adjuvant-induced osteoarthritis pain, foot swelling degree; assay type: in vivo, rats; details: 10 mg/Kg; for Foot swelling degree after inflammation: X ± S, n = 10; for effect of inhibiting osteoarthritis pain: rats, indometacin 10 mg/Kg
Method: Typical model for studying inflammatory pain medically was used to evaluate the therapeutic effects of compounds on inflammatory pain. 0.1 mL Freund's complete adjuvant was intradermally injected to toe of the left hind foot of the rats in each group to obtain adjuvant-induced arthritis rat models. Foot volume method was used to measure primary and secondary foot swelling degree (swelling degree=volume after inflammation−volume before inflammation), and polyarticular arthritis were scored (5 scoring grades: 0 represents no red swelling; 4 represents red swelling at all the paws including anklebone. The scores are accumulated according to the lesion degree of the rest three limbs not injected with adjuvant, and the highest score is 12). Before inflammation and at 6 h, 12 h, 18 h and 24 h after inflammation, Paw Volume Meter was used to measure the foot volume at the inflammatory side, and the swelling degree was calculated. The model can represent inflammatory pain including, but not only limited to: osteoarthritis pain and fibromyalgia syndrome, inflammatory pain of rheumatic and rheumatoid arthritis, inflammatory pain of endometriosis, inflammatory toothache, ankylosing spondylitis pain, and gouty arthritis pain.

[3] = Stability assay in rat plasma; assay type: in vitro ADME; details: 37° C.
Method: To each of several tubes sub-packaged with rat plasma, PBS solution was added in a volume equal to a quarter of plasma volume, and the resultant mixture was mixed well. […] At different time points (0, 10, 30, 60, 120, 240, 360, 720, 1440 min), 50 μL plasma sample was taken and added to 150 μL precooled methanol (containing the internal standard compound E8, with a structure of
[drawing 117] and a name of 1-(2-Biphenyl-4-yl)ethyl-carbonyl pyrrolidine, 1 nmol/sample), wherein three parallel samples were prepared for each time point. The samples were then vertically mixed well, and centrifuged at 4° C., 12000 g for 10 min. The supernatant was transferred to a sample vial. LC-MS/MS was used to measure the peak area at different time points, Analyst® version 1.4.1. software was used to analyze chromatographic peak, and the content of the target compound was calculated by virtue of the standard curve.

hERG potassium channel = hERG potassium channel (Homo sapiens (Human), UniProt Q12809); assay: hERG potassium channel automated patch clamp in CHO-hERG cells
hERG potassium channel, sequence (Q12809 whole entry): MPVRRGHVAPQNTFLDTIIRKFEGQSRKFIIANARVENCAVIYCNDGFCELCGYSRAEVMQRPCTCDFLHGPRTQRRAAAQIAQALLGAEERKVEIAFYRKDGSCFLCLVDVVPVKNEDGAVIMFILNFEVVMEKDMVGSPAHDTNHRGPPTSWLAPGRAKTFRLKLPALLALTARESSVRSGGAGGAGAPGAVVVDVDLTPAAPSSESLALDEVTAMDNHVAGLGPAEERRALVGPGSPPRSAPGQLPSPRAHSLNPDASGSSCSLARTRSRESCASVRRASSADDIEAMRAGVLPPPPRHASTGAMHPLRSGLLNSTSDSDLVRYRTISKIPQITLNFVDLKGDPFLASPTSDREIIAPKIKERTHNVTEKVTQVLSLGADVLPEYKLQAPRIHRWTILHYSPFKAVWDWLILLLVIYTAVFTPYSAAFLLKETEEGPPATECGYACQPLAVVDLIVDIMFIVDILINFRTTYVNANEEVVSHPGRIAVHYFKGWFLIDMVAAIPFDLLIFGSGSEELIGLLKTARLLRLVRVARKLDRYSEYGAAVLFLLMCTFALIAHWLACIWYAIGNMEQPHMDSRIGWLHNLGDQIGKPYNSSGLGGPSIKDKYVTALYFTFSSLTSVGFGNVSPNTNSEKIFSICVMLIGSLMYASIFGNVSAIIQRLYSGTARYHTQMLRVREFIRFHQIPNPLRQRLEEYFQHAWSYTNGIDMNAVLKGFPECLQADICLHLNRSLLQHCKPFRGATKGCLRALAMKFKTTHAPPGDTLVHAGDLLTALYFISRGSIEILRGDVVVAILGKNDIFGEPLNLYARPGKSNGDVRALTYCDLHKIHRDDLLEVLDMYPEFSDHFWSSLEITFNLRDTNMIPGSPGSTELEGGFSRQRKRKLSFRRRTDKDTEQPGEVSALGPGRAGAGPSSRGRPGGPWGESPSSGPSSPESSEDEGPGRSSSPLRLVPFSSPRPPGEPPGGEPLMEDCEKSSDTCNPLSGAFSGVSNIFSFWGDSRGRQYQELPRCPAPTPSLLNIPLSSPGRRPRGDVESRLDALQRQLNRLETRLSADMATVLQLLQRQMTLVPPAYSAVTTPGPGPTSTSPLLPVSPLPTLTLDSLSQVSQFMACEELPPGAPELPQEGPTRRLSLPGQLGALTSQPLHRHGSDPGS
Method: CHO-hERG cells (purchased from ATCC) were incubated in a culture flask. When the cell density reached 60˜80%, the culture medium (Glutamax DMEM/F12 medium (Gibco, Shanghai) containing 10% fetal bovine serum) was removed. The cells were washed with 7 mL PBS once, and then digested by adding 3 mL Detachin cell dissociation buffer. After complete digestion, the resultant mixture was neutralized by adding 7 mL culture medium, and centrifuged. The supernatant was removed with a pipette, 5 mL culture medium was added to re-suspend the cells to ensure a cell density of 2˜5×10^6/mL.
Intracellular fluid and extracellular fluid were prepared as described in the following table.
A certain amount of compound was dissolved in […] at the following concentrations, to prepare the stock solution of compound. 2 μL stock solution of compound was added to 998 μL extracellular fluid, and was subjected to 5-fold serial dilution in extracellular fluid containing 0.2% DMSO to get the final concentrates to be tested.
Single cell giga-seal and formation of whole-cell mode were automatically performed by Sophion Qpatch HT fully automated cell patch clamp systems. After obtaining the whole-cell recording mode, the cell was clamped at −80 mV. The cell first underwent pre-voltage of −50 mV for 50 msec, then underwent depolarization stimulation at 20 mV for 5 sec, and then underwent repolarization at −50 mV for 5 sec, and then the voltage return to −80 mv. The cell underwent the stimulation at the voltage every 15 sec, and the data were recorded for 2 min, then extracellular fluid was administered, and then the data were recorded for 2 min. Then, the administration process begun. The concentration of a test compound started from the lowest concentration, each test concentration was administered for 2 min. […] At least three cells were tested for each concentration (n≥3). The experimental data was analyzed by XLFit software.

Structure (SMILES) | half-life [1] [h] | Foot swelling degree after inflammation ([2]; 6 h) | Foot swelling degree after inflammation ([2]; 12 h) | Foot swelling degree after inflammation ([2]; 18 h) | Foot swelling degree after inflammation ([2]; 24 h) | effect of inhibiting osteoarthritis pain [2] | half-life at 2 μM [3] [h] | IC50 (hERG potassium channel) [µM]
O=C(CCCCCc1ccccc1)N1CCOC1=O [Compound 2, Phenylhexanoyl Oxazolidinone] | 2.4 | 0.35 ± 0.07^c mL | 0.65 ± 0.13^c mL | 1.06 ± 0.14^c mL | 0.89 ± 0.21^c mL | significant effects of inhibiting osteoarthritis pain | 3.13 | > 40
O=C(CCCCCc1cccc(Cl)c1)N1CCOC1=O [Compound 9, 3-Chlorophenylhexanoyl Oxazolidinone] | 1.95 | 0.44 ± 0.09^c mL | 0.75 ± 0.24^c mL | 1.24 ± 0.24^b mL | 1.06 ± 0.18^c mL | significant effects of inhibiting osteoarthritis pain | 2.72 | > 40
